What was measured:
[1] = Absorption characteristics: transmission spectrum of near-infrared absorbing layer of NIR filter (UV-visible spectrophotometer); assay type: physicochemical
Description: Further, the transmittance of the near-infrared absorbing layer can be measured by using an ultraviolet visible light spectrophotometer. For example, when the near-infrared absorbing layer is provided on a glass substrate, the transmittance is calculated by subtracting the transmittance of only the glass substrate. Note that the transmittance of light of the near-infrared absorbing layer refers to, unless otherwise stated, a ratio to light incident from a direction orthogonal to a main surface of a sample, the ratio of this light traveling straight inside the sample and transmitted to an opposite side. Further, when the transmittance is measured by making light incident from a direction other than the direction orthogonal to the main surface of the sample in the measurement of transmittance of light, an angle made by a straight line indicating the direction of the incident light to a line orthogonal to the main surface is called an incident angle.
In the condition (ii-3), the value calculated by nd(B)×(λa−λc) (hereinafter, this value may also be described as “Is value”) is a value to be an index indicating steepness of the absorption curve in the vicinity of the boundary between the visible light region and the near-infrared region with respect to a transmission spectrum of the near-infrared absorbing layer. When this value is 115 or less, the absorption curve in the vicinity of the boundary between the visible light region and the near-infrared region is steep with respect to the near-infrared absorbing layer, which can be said as preferable for the NIR filter.
That is, with respect to the transmission spectrum of the near-infrared absorbing layer, the smaller the difference (λa−λc) between the shortest wavelength λa with transmittance of 1% in the region of 650 nm to 800 nm and the wavelength λc with transmittance of 70% on a shorter wavelength side than the λa, the steeper the absorption curve in the vicinity of the boundary between the visible light region and the near-infrared region. Here, λa−λc also depends on a wavelength width having transmittance of 1% or less (λb−λa; λb is the longest wavelength with transmittance of 1% in the wavelength region of 650 nm to 800 nm). Accordingly, in order to compare and evaluate the steepness of the absorption curve in the above region of the transmission spectrum of the near-infrared absorbing layer, λb−λa is fixed to 30 nm. That is, λb−λa of the near-infrared absorbing layer which the present filter has is not limited to 30 nm.
Further, in the Is value, (λa−λc) is multiplied by the refractive index nd(B) of the transparent resin (B) contained in the near-infrared absorbing layer as a coefficient. This is to standardize the difference in steepness among resins.
Regarding transmittance (%/nm) of the NIR filters 1 to 109 obtained above, transmission spectra were measured and calculated by using an ultraviolet visible light spectrophotometer (U-4100 type spectrophotometer made by Hitachi High-Technologies Corporation). Analysis results of transmission spectra of the near-infrared absorbing layers which the NIR filters have are presented in Table 4, Table 5 and Table 6 for the NIR filters 1 to 25, 26 to 51, 52 to 75, respectively, and are presented in Table 7 and Table 8 for the NIR filters 76 to 94, 95 to 109, respectively. In Table 4 to Table 8, the ratios (parts by mass) of dyes to 100 parts by mass of the transparent resin (B) and film thicknesses of the near-infrared absorbing layers are described together.
Further, conditions of preferred transmission spectra of the near-infrared absorbing layers in the present filter and Is values obtained by the formula: nd(B)×(λa-λc) described in above (ii-3) are described in Table 4 to Table 8 together with λa in the condition (ii-1) and λb-λa in the condition (ii-2). Note that values described in Table 4 to Table 8 are values obtained by subtracting transmittance of a glass plate from transmittance of an NIR filter. […]

[2] = Solubility of dye to organic solvent; assay type: physicochemical; details: 50° C., mass % of the dye to the mass of the entire solution; for Solubility to organic solvent: MIBK: methyl isobutyl ketone
Description: Regarding the dyes (A11-1) to (A11-10) and (A11-20) to (A11-27) obtained above, solubility to organic solvent was evaluated as follows.
Three kinds of solvents, cyclohexanone, methyl isobutyl ketone (MIBK), toluene, were used as the organic solvent in the solubility test. Note that in Table 3, % is mass % of the dye to the mass of the entire solution. Further, the temperature of each organic solvent in the solubility test was 50° C.

[3] = transparent resin acrylic resin BR50, nd(B) 1.56, film thickness 2.3 μm
[4] = transparent resin polycarbonate EP5000, nd(B) 1.63, film thickness 2.4 μm
[5] = transparent resin polycarbonate SP3810, nd(B) 1.63, film thickness 1.0 μm
[6] = transparent resin polycarbonate SP3810, nd(B) 1.63, film thickness 2.8 μm
[7] = transparent resin polycarbonate SP1516, nd(B) 1.60, film thickness 0.9 μm

430 nm to 600 nm Average transmittance [1, 3] [%] | Is value (nd(B)×(λa-λc)) [1, 3] | λa [1, 3] [nm] | λa − λc [1, 3] [nm] | λb [1, 3] [nm] | λb − λa [1, 3] [nm] | λc [1, 3] [nm] | λmax [1, 3] [nm] | 430 nm to 600 nm Average transmittance [1, 4] [%] | Is value (nd(B)×(λa-λc)) [1, 4] | λa [1, 4] [nm] | λa − λc [1, 4] [nm] | λb [1, 4] [nm] | λb − λa [1, 4] [nm] | λc [1, 4] [nm] | λmax [1, 4] [nm] | 430 nm to 600 nm Average transmittance [1, 5] [%] | Solubility to organic solvent: Cyclohexanone [2] | Solubility to organic solvent: MIBK [2] | Solubility to organic solvent: Toluene [2] | SMILES | other results
94.7 | 110.9 | 684 | 71 | 714 | 30 | 613 | 700 | 95.5 | 112.6 | 689 | 69 | 719 | 30 | 620 | 705 | 97.1 |  |  |  | CCCC(C)(C)C(=O)Nc1cc2c(cc1C1=C([O-])C(=c3cc4c(cc3NC(=O)C(C)(C)CCC)=[N+](C)C(C)C4(C)C)C1=O)C(C)(C)C(C)N2C (stereo not drawn) [Example A11-14] | Is value (nd(B)×(λa-λc)) [1, 5]: 112.8; λa [1, 5]: 689 nm; λa − λc [1, 5]: 69 nm; λb [1, 5]: 719 nm; λb − λa [1, 5]: 30 nm; λc [1, 5]: 620 nm; λmax [1, 5]: 700 nm; 430 nm to 600 nm Average transmittance [1, 6]: 95.6%; Is value (nd(B)×(λa-λc)) [1, 6]: 111.2; λa [1, 6]: 689 nm; λa − λc [1, 6]: 68 nm; λb [1, 6]: 719 nm; λb − λa [1, 6]: 30 nm; λc [1, 6]: 621 nm; λmax [1, 6]: 705 nm
 |  |  |  |  |  |  |  |  |  |  |  |  |  |  |  |  | 10%< mass % | 10%< mass % | 10%< mass % | CCCCC(CC)C(=O)Nc1cc2c(cc1C1=C([O-])C(=c3cc4c(cc3NC(=O)C(CC)CCCC)=[N+](CC)C(C)C4(C)C)C1=O)C(C)(C)C(C)N2CC (stereo not drawn) [Example A11-5] | 
 |  |  |  |  |  |  |  |  |  |  |  |  |  |  |  |  | 10%< mass % | 10%< mass % | 10%< mass % | CCCCCCCCCC(CCCCCCC)C(=O)Nc1cc2c(cc1C1=C([O-])C(=c3cc4c(cc3NC(=O)C(CCCCCCC)CCCCCCCCC)=[N+](C)C(C)C4(C)C)C1=O)C(C)(C)C(C)N2C (stereo not drawn) [Example A11-3] | 
 |  |  |  |  |  |  |  |  |  |  |  |  |  |  |  |  | <1.0% mass % | <1.0% mass % | 1.00% mass % | CCCCCC(=O)Nc1cc2c(cc1C1=C([O-])C(=c3cc4c(cc3NC(=O)CCCCC)=[N+](C)C(C)C4(C)C)C1=O)C(C)(C)C(C)N2C (stereo not drawn) [Example A11-22, reference compound] | 430 nm to 600 nm Average transmittance [1, 7]: 95.3%; Is value (nd(B)×(λa-λc)) [1, 7]: 126.4; λa [1, 7]: 691 nm; λa − λc [1, 7]: 79 nm; λb [1, 7]: 721 nm; λb − λa [1, 7]: 30 nm; λc [1, 7]: 612 nm; λmax [1, 7]: 707 nm
95 | 112.4 | 689 | 72 | 719 | 30 | 617 | 706 | 96.2 | 112.6 | 694 | 69 | 724 | 30 | 625 | 711 | 96.1 | 10%< mass % | 10%< mass % | 5.00% mass % | CCCCC(CC)C(=O)Nc1cc2c(cc1C1=C([O-])C(=c3cc4c(cc3NC(=O)C(CC)CCCC)=[N+](C)C(C)C4(C)C)C1=O)C(C)(C)C(C)N2C (stereo not drawn) [Example A11-2] | Is value (nd(B)×(λa-λc)) [1, 5]: 114.4; λa [1, 5]: 694 nm; λa − λc [1, 5]: 70 nm; λb [1, 5]: 724 nm; λb − λa [1, 5]: 30 nm; λc [1, 5]: 624 nm; λmax [1, 5]: 706 nm; 430 nm to 600 nm Average transmittance [1, 6]: 95.5%; Is value (nd(B)×(λa-λc)) [1, 6]: 112.8; λa [1, 6]: 694 nm; λa − λc [1, 6]: 69 nm; λb [1, 6]: 724 nm; λb − λa [1, 6]: 30 nm; λc [1, 6]: 625 nm; λmax [1, 6]: 710 nm
 |  |  |  |  |  |  |  |  |  |  |  |  |  |  |  |  | 10%< mass % | 1.00% mass % | 3.00% mass % | CCCC(C)C(=O)Nc1cc2c(cc1C1=C([O-])C(=c3cc4c(cc3NC(=O)C(C)CCC)=[N+](C)C(C)C4(C)C)C1=O)C(C)(C)C(C)N2C (stereo not drawn) [Example A11-10] | 
